These results are taken from ChEMBL document CHEMBL1201862, “PubChem BioAssay data set” (2004).

Test systems include A498; COLO 205; DMS-114; DMS-273; EKVX; HOP-18; KM-20L2; KM12; LOX IMVI; M19-MEL; Malme-3M; NCI-H23; RXF 393; SF-295; SK-MEL-28; MCF7; BT-549; DU-145; MDA-MB-435; MDA-N.
Holding throughout (experiment): NCI anticancer screen, dose series, 48 h

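Cells were grown in 96-well plates and exposed to each compound for 48 hours at five concentrations; endpoints were interpolated linearly between bracketing concentrations, or set to the highest concentration if not reached. GI50 = concentration required for 50% inhibition of growth.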 The source made the active and inactive calls. Rule as the data show it: active = GI50 up to about 1.1 µM and inactive = higher. Bounds are passed on as bounds.

Take `CC1(O)C=CC(=O)C=C1`: the GI50 in the experiment on A498 was 37.6 µM (inactive); in the experiment with COLO 205, 34.8 µM (inactive); in the experiment with DMS-114, 16.4 µM (inactive); in the experiment with DMS-273, 18.3 µM (inactive); in the experiment on EKVX it was 47.3 µM (inactive); with HOP-18 it was 58.2 µM (inactive). Also, the GI50 with KM-20L2 was 32 µM (inactive); in the experiment with KM12, > 48.2 µM (inactive); in the experiment with LOX IMVI, 20.4 µM (inactive); in the experiment on M19-MEL, 22.6 µM (inactive); in the experiment with Malme-3M, 20.3 µM (inactive); in the experiment with NCI-H23 it was 30.3 µM (inactive). Moreover, the figures for the GI50 with RXF 393, in the experiment with SF-295 and in the experiment on SK-MEL-28 were 21.6 µM (inactive), 57.1 µM (inactive) and 18.8 µM (inactive), respectively.
For the compound `COc1cc(/C=C/C(=O)O)ccc1C(=O)OCc1ccccc1`, the GI50 in the experiment on A498, with COLO 205, with DMS-114, in the experiment with DMS-273, in the experiment with EKVX and in the experiment with HOP-18 was > 100 µM (inactive) each time. In addition, the GI50 in the experiment with KM-20L2, in the experiment on KM12, in the experiment on LOX IMVI, in the experiment with M19-MEL, in the experiment on MCF7 and in the experiment with Malme-3M was > 100 µM (inactive) in each case. The GI50 with NCI-H23, in the experiment with RXF 393, with SF-295 and with SK-MEL-28 was > 100 µM (inactive) in each case.
As for `COC(=O)C1=C(O)c2cc3c(cc2[C@H](c2cc(OC)c(OC)c(OC)c2)C1C(=O)OC)OCO3` (some centres not stated), the GI50 in the experiment with A498 is 76 µM (inactive); with COLO 205, 19.7 µM (inactive); with DMS-114, 25 µM (inactive); in the experiment on DMS-273, 65.2 µM (inactive); with EKVX, 68.2 µM (inactive); in the experiment on HOP-18, 29.2 µM (inactive). Further, the GI50 is > 100 µM (inactive) with KM-20L2; 35.2 µM (inactive) in the experiment with KM12; > 100 µM (inactive) in the experiment on LOX IMVI; 39.5 µM (inactive) with M19-MEL; 28.9 µM (inactive) in the experiment with Malme-3M; > 100 µM (inactive) in the experiment on NCI-H23. Further, the GI50 with RXF 393 is 30.2 µM (inactive); with SF-295 it was 57 µM (inactive); in the experiment on SK-MEL-28 it was 52.8 µM (inactive).
For the compound `COC1O[C@H]2CCN(C(=O)OCc3ccccc3)[C@H]2[C@H]1OCc1ccccc1` (some centres not stated), the GI50 in the experiment with A498 was > 100 µM (inactive); in the experiment with COLO 205, 70.3 µM (inactive); with DMS-114, 29.6 µM (inactive); in the experiment on DMS-273, 39.1 µM (inactive); in the experiment with EKVX it was 49.2 µM (inactive); with HOP-18 it was > 100 µM (inactive). Moreover, the GI50 with KM-20L2 is 69.2 µM (inactive); in the experiment with LOX IMVI, 56.6 µM (inactive); in the experiment with M19-MEL it was 53 µM (inactive); with Malme-3M it was 45.6 µM (inactive); in the experiment on NCI-H23, 20.3 µM (inactive); in the experiment with RXF 393 it was 50 µM (inactive). The GI50 in the experiment on SF-295 is 49.9 µM (inactive); in the experiment on SK-MEL-28 it was 41.2 µM (inactive).
Consider `COc1cc2c(cc1OC)-c1c3c(cc4c1[C@@H](C2)N(C)CC4)OCO3`, for which the GI50 was 4.69 µM (inactive) in the experiment on A498; 4.23 µM (inactive) in the experiment with COLO 205; 8.43 µM (inactive) in the experiment with DMS-114; 3.52 µM (inactive) with DMS-273; 11.4 µM (inactive) in the experiment with EKVX; 18.2 µM (inactive) in the experiment with HOP-18. Further, the GI50 with KM-20L2 is 3.44 µM (inactive); in the experiment with KM12, 7.4 µM (inactive); in the experiment on LOX IMVI it was 3.78 µM (inactive); with M19-MEL, 10.4 µM (inactive); in the experiment on MCF7 it was 1.94 µM (inactive); in the experiment on Malme-3M it was 9.14 µM (inactive). Further, the GI50 is 10.2 µM (inactive) with NCI-H23, 8.04 µM (inactive) in the experiment with RXF 393, 1.64 µM (inactive) with SF-295 and 12.2 µM (inactive) in the experiment with SK-MEL-28.
On to `CN(C)CCNC(=O)c1cccc2cc3cc(O)ccc3nc12`, for which the GI50 with A498 is 0.782 µM (active); in the experiment with COLO 205, 0.897 µM (active); with DMS-114, 1.37 µM (inactive); in the experiment on DMS-273, 0.662 µM (active); in the experiment with EKVX it was 1.95 µM (inactive); in the experiment on HOP-18 it was 1.32 µM (inactive). In addition, the GI50 in the experiment on KM-20L2 is 2.44 µM (inactive); in the experiment on KM12, 2.12 µM (inactive); in the experiment on LOX IMVI, 0.857 µM (active); in the experiment on M19-MEL it was 1.2 µM (inactive); in the experiment on MCF7, 0.473 µM (active); with Malme-3M it was 1.22 µM (inactive). Also, the GI50 in the experiment with NCI-H23 is 1.24 µM (inactive); in the experiment with RXF 393, 1.11 µM (active); in the experiment with SF-295, 1 µM (active); in the experiment with SK-MEL-28 it was 1.92 µM (inactive).
Regarding `S=c1c2nc[nH]c2ncn1CCSC1=NC=NC2=NC=NC21` (configuration not stated), the GI50 in the experiment on A498 is > 100 µM (inactive); in the experiment with BT-549, > 100 µM (inactive); with COLO 205 it was > 100 µM (inactive); with DMS-114, > 100 µM (inactive); in the experiment with DMS-273, 64.4 µM (inactive); with DU-145, 78.3 µM (inactive). Moreover, the GI50 was > 100 µM (inactive) in the experiment on EKVX; > 100 µM (inactive) with HOP-18; > 100 µM (inactive) in the experiment on KM-20L2; 76.2 µM (inactive) with KM12; 44.7 µM (inactive) with LOX IMVI; > 100 µM (inactive) in the experiment on M19-MEL. Besides, the GI50 is > 100 µM (inactive) in the experiment on MCF7; 53.5 µM (inactive) with MDA-MB-435; 61.7 µM (inactive) in the experiment on MDA-N; > 100 µM (inactive) in the experiment with Malme-3M; > 100 µM (inactive) with NCI-H23; > 100 µM (inactive) in the experiment with RXF 393. Besides, the GI50 in the experiment on SF-295 and in the experiment with SK-MEL-28 was > 100 µM (inactive) throughout.
`COC(=O)C#CCC1CCCC1C1SCCS1` (configuration not stated): the GI50 in the experiment with A498 is > 100 µM (inactive); in the experiment with COLO 205 it was > 100 µM (inactive); with DMS-114 it was > 100 µM (inactive); in the experiment with DMS-273 it was 30.4 µM (inactive); in the experiment on EKVX it was > 100 µM (inactive); in the experiment with HOP-18, > 100 µM (inactive). The GI50 with KM-20L2 is 59.6 µM (inactive); with KM12 it was 36.7 µM (inactive); with LOX IMVI, 50.2 µM (inactive); with M19-MEL it was > 100 µM (inactive); with Malme-3M, > 100 µM (inactive); in the experiment with NCI-H23, > 100 µM (inactive). Moreover, the results for the GI50 in the experiment on RXF 393, in the experiment on SF-295 and with SK-MEL-28 were > 100 µM (inactive), 90.6 µM (inactive) and > 100 µM (inactive), respectively.
In the case of `CCCCCCCCCCCC(=O)C1=C(O)CCC(O)C1=O` (configuration not stated), the GI50 in the experiment on A498 was 16.2 µM (inactive); in the experiment on COLO 205, 15.1 µM (inactive); with DMS-114, 14.2 µM (inactive); in the experiment with DMS-273, 7.29 µM (inactive); in the experiment with EKVX, 5.86 µM (inactive); with HOP-18, 25.5 µM (inactive). Moreover, the GI50 with KM-20L2 is 11.7 µM (inactive); with KM12, 17.9 µM (inactive); in the experiment with LOX IMVI it was 11.3 µM (inactive); with M19-MEL it was 19.5 µM (inactive); with Malme-3M, 17 µM (inactive); with NCI-H23 it was 3.48 µM (inactive). Further, the GI50 with RXF 393 was 35.1 µM (inactive); in the experiment on SF-295, 8.17 µM (inactive); in the experiment with SK-MEL-28 it was 16.1 µM (inactive).
